Columns and labels:
[1] = tested on: LNCaP/AR cells; test: LNCaP/AR model for castrate resistant prostate cancer xenograft studies; type: in vivo, male SCID Hairless Outbred mice; details: for Efficacy on LNCaP/AR tumors: monotherapy at or near maximally efficacious dose
Procedure: In some embodiments, overexpression of wild type androgen receptor 3-5 fold in the LNCaP (LNCaP/AR) cell line confers a castration resistant phenotype both in vitro and in vivo.
Six to Seven week old male SCID Hairless Outbred mice (SHO, Charles Rivers Laboratories) underwent bilateral orchiectomy under isoflurane anesthesia. LNCaP/AR cells were grown in RPMI at 5% CO2, 37° C. Cells were spun down and re-suspended in 50% serum-free RPMI and 50% Matrigel at 1×10^7 cells/ml. LNCaP/AR cells were subcutaneously injected (100 μl/animal) on the right flank 3-5 days post castration. Tumor volume (length×width^2/2) was monitored weekly. When tumors reached an average volume of ˜200 mm^3 animals were randomized into treatment groups. During the treatment period tumor volume was monitored bi-weekly. At the termination of the study, tumors were collected and stored for further analyses. All compounds were administered daily by oral gavage. Statistical analyses were performed using Graphpad Prism.

[2] = tested on: PTEN KO model of prostate cancer; test: PTEN KO genetically engineered mouse model of prostate cancer; type: in vivo, mice; details: for Efficacy: combined androgen blockade (castration + anti-androgen)
Procedure: Ptenlox/lox; PB-Cre mice (age 6-8 months) are imaged by small animal MRI imaging core prior to and at the completion of treatment. All mice are castrated. Surgical castration is performed under anesthesia with isoflurane. Mice are monitored postoperatively for recovery.
Mice are administered control vehicle or test article by oral gavage daily Monday through Friday schedule for a total of 35 days. MRI tumor volumes are reported for each mouse at time point zero (T0) at initiation of study and time point 35 days (T35) at completion of study. Changes in tumor volumes between T0 and T35 are calculated for individual mice and reported in waterfall plots. At study end, mice were euthanized by CO2 asphyxiation, and tissue was collected for histology, mRNA analysis, protein analysis and other analyses.

[3] = biological target: T1, T877A AR mutant (Homo sapiens, UniProt P10275, T878A); details: cited from earlier work
T1 sequence (P10275 1-920 T878A): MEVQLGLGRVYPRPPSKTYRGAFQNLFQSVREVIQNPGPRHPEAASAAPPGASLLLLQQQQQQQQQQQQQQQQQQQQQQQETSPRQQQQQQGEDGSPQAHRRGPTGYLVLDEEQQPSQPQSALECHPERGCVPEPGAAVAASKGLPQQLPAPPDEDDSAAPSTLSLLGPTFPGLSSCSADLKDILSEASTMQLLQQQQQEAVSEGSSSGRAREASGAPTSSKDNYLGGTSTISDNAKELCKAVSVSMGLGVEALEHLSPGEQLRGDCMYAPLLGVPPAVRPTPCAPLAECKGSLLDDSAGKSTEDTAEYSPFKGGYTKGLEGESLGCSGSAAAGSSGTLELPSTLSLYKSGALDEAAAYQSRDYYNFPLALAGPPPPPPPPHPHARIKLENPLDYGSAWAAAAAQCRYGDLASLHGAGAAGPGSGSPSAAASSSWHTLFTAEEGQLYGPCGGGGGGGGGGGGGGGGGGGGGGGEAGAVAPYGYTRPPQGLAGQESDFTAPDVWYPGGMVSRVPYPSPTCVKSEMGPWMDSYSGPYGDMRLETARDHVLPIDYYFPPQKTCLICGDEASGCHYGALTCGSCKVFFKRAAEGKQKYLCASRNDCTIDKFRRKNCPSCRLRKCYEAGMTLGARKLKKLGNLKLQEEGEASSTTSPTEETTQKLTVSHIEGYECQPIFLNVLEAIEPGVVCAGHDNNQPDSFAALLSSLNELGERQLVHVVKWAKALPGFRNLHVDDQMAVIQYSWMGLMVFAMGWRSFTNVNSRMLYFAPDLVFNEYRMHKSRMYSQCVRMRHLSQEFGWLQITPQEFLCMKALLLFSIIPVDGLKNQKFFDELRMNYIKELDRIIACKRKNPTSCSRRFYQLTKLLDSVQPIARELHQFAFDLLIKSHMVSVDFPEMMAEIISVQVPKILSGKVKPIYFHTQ

[4] = tested on: non-metastatic CRPC; test: Phase II clinical trial, non-metastatic CRPC; type: in vivo, human; details: 240 mg/day
Source text: (§1) The primary objective was to assess antitumor activity and PSA kinetics as defined by the Prostate Cancer Clinical Trials Working Group (PCWG2) criteria. […] The median time to PSA progression was not reached for the TN cohort during the preliminary 12-week period, and was 16 weeks in the PA cohort.
The median time to PSA progression was not reached in this observed time period.

[5] = tested on: MDA MB 453 cells; test: MDA MB 453 breast cancer xenograft assay; type: in vivo, female SCID Hairless Outbred (SHO) mice; details: 30 mg/kg/day, daily for 28 days
Procedure: Time release pellets (12.5 mg 5α-Dihydrotestosterone/60 days) were subcutaneously implanted into female SCID Hairless Outbred (SHO) mice. MDA MB 453 cells were grown in RPMI containing 10% FBS, 10 μg/ml insulin, 10 mM Sodium Pyruvate, 10 mM Non-Essential Amino Acids at 5% CO2, 37° C. Cells were spun down and re-suspended in 50% RPMI (serum free) and 50% Matrigel (BD, high concentration containing phenol red) at 1×10^7 cells/ml. MDA MB 453 cells were subcutaneously injected (100 μl/animal) on the right flank 2-3 days post pellet implantation. Tumor volume (length×width^2/2) was monitored bi-weekly. When tumors reached an average volume of ˜350 mm^3, animals were randomized and treatment was started. […] Tumor volume and body weight were monitored bi-weekly throughout the study. At the conclusion of the treatment period; plasma and tumor samples were taken for pharmacokinetic and pharmacodynamic analyses, respectively.

[6] = tested on: non-castrate hormone-sensitive and bicalutamide-resistant human prostate cancer xenograft models; details: in vivo; cited from earlier work
[7] = tested on: metastatic CRPC; test: Phase II clinical trial, metastatic CRPC (treatment-naïve and post-abiraterone acetate cohorts); type: in vivo, human; details: for Patients with 12-week PSA decline of ≧50% from baseline: preliminary
Source text: as §1

CO[C@H]1C[C@@H]2CC[C@@H](C)[C@@](O)(O2)C(=O)C(=O)N2CCCC[C@H]2C(=O)O[C@H]([C@H](C)C[C@@H]2CC[C@@H](OCCO)[C@H](OC)C2)CC(=O)[C@H](C)/C=C(\C)[C@@H](O)[C@@H](OC)C(=O)[C@H](C)C[C@H](C)/C=C/C=C/C=C/1C [Everolimus]
Number of regressions > 50% ([1]; Table 5, Everolimus 5 mg/kg/day alone): 0/8
Number of regressions > 50% ([1]; Table 5, Everolimus 10 mg/kg/day alone): 2/10
Efficacy on LNCaP/AR tumors [1]: a range of efficacy from tumor growth inhibition to tumor stasis

Nc1cc(C(F)(F)F)c(-c2cc(N3CCOCC3)nc(N3CCOCC3)n2)cn1 [BKM120, 5-(2,6-dimorpholinopyrimidin-4-yl)-4-(trifluoromethyl)pyridin-2-amine]
Number of regressions > 50% ([1]; Table 4, BKM120 20 mg/kg alone): 1/10
Number of regressions > 50% ([1]; Table 4, BKM120 40 mg/kg alone): 0/9
Efficacy on LNCaP/AR tumors [1]: a range of efficacy from tumor growth inhibition to tumor stasis

COc1ccc(Cl)c(Nc2nc3ccccc3nc2NS(=O)(=O)c2cccc(NC(=O)C(C)(C)N)c2)c1 [SAR245408]
Efficacy on LNCaP/AR tumors [1]: a range of efficacy from tumor growth inhibition to tumor stasis

CNC(=O)c1ccc(N2C(=S)N(c3ccc(C#N)c(C(F)(F)F)c3)C(=O)C2(C)C)cc1F [MDV3100, 4-(3-(4-cyano-3-(trifluoromethyl)phenyl)-5,5-dimethyl-4-oxo-2-thioxoimidazolidin-1-yl)-2-fluoro-N-methylbenzamide]
Efficacy [2]: minimal efficacy

CC(C)(O)C(=O)Nc1ccc([N+](=O)[O-])c(C(F)(F)F)c1 [hydroxyflutamide]
Agonist activity [3]: act as AR agonists

CNC(=O)c1ccc(N2C(=S)N(c3cnc(C#N)c(C(F)(F)F)c3)C(=O)C23CCC3)cc1F [4-[7-(6-cyano-5-trifluoromethylpyridin-3-yl)-8-oxo-6-thioxo-5,7-diazaspiro[3.4]oct-5-yl]-2-fluoro-N-methylbenzamide]
Patients with ≧50% decline in PSA as compared to baseline ([4]; 12 weeks of treatment): 91%
Patients with ≧50% decline in PSA ([4]; 24 weeks): 91%
Patients with ≧90% decline in PSA ([4]; 24 weeks): 55%
Median time to PSA progression ([4]; observed time period): not reached
Mean tumor response of LNCaP/AR tumors ([1]; 1 mg/kg/day): tumor stasis
Tumor response of LNCaP/AR tumors ([1]; 10-30 mg/kg/day): nearly full regression of all treated LNCaP/AR tumors
Number of regressions > 50% ([1]; Table 4, 3 mg/kg/day alone, oral gavage daily): 2/10
Number of regressions > 50% ([1]; Table 5, 3 mg/kg/day alone, oral gavage daily): 1/10
Number of Tumor Regressions ([5]; +DHT): 9/9
Number of Tumor Regressions ([5]; −DHT): 5/10
Tumor response [6]: partial or complete tumor regression
Tolerability ([7]; 240 mg oral, continuous daily dosing, NM-CRPC, TN mCRPC and post-abiraterone mCRPC): very well tolerated
Patients with 12-week PSA decline of ≧50% from baseline ([7]; PA cohort, 240 mg oral, continuous daily dosing): 29%
Median time to PSA progression ([7]; PA cohort, 240 mg/day): 16 weeks
Patients with 12-week PSA decline of ≧50% from baseline ([7]; TN cohort, 240 mg oral, continuous daily dosing): 88%
Median time to PSA progression ([7]; TN cohort, preliminary 12-week period, 240 mg/day): not reached
Objective response rate (by RECIST) ([7]; TN patients with measurable disease at baseline, 240 mg/day): 63%
Efficacy [2]: minimal efficacy

Cn1c(=O)n(-c2ccc(C(C)(C)C#N)cc2)c2c3cc(-c4cnc5ccccc5c4)ccc3ncc21 [BEZ-235]
Anti-tumor activity ([2]; monotherapy): minimal anti-tumor activity
